# Test results: paper PMC6921279 (Frontiers in Endocrinology, 2019)
# Tests used:
# EGFR Tyr845 = assay: CRF-induced EGFR phosphorylation at Tyr845 in COS-7 cells expressing HA-CRF1R; assay type: cell-based; conditions: 100 nM wortmannin, 30 min pretreatment; 100 nM CRF, 5 min
# Protocol: COS-7 cells (from the American Type Culture Collection) were cultured at 37°C in a humidified atmosphere of 95% air, 5% CO2, in DMEM supplemented with 10% FBS, 100 μg/ml streptomycin, and 100 units/ml penicillin (COS-7 growth medium). Transient transfections were performed using LipofectAMINE (Life Technologies: Gaithersburg, MD) as described previously ([27]). Cells were seeded at 8 × 10^5 cells/10-cm dish in COS-7 medium and cultured for 3 days before transfection. COS-7 cells were transfected in 5 ml/dish OptiMEM containing 10 μg/ml LipofectAMINE with empty vector, pcDNA3 encoding the HA-CRF1R or the HA-CRF1R-Δ386 mutant. […]
# The protocols for measuring total and phosphorylated ERK1/2, c-Src, PYK2, Akt, and EGFR have been previously published ([28], [29]). […] The labeled bands were quantified using the Quantity One 4.6.3 software program (Bio-Rad).
# Figure 6 CRF mediates EGFR phosphorylation at Tyr^845 and activation of PYK2. […] Total cell lysates were separated by SDS-PAGE and analyzed by immunoblotting with anti-p-EGFR Tyr^845 (A,B) or anti-p-PYK2 Tyr^402 (E), as described in Materials and Methods. EGFR and ERK1/2 phosphorylation were quantitated by densitometry, and mean values were plotted from three to five independent experiments. […] Src and EGFR were quantitated by densitometry, and mean values were plotted from three independent experiments. […]
# [1] = system: CRF1R-mediated ERK1/2 phosphorylation; assay: Modulation of CRF-stimulated ERK1/2 phosphorylation in COS-7 cells expressing HA-CRF1R; assay type: cell-based; conditions: wortmannin (0–100 nM), 30 min pretreatment; 100 nM CRF, 5 min
# Summary of the method: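 Lysates were immunoblotted for phospho-ERK1/2 Thr202/Tyr204. Phosphorylation was quantified by densitometry as the mean of three to five independent experiments.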
structure (smiles),measurement,setting,value
COC[C@H]1OC(=O)c2coc3c2[C@@]1(C)C1=C(C3=O)[C@@H]2CCC(=O)[C@@]2(C)C[C@H]1OC(C)=O [wortmannin],effect on CRF-induced EGFR Tyr845 phosphorylation,EGFR Tyr845,had no effect on CRF-induced phosphorylation of EGFR at Tyr^845
same,effect on CRF-stimulated ERK1/2 phosphorylation,[1],abolished CRF-stimulated ERK1/2 phosphorylation
